Structures can show the parent of a compound that is named as a salt. Where two headings read alike, the source gives them in different places.
Experiments:
Human Platelets = conditions: cited from earlier work
tumor cells = conditions: cited from earlier work
[1] = test system: hepatic microsomal enzymes; conditions: in vitro; specific metabolites not identified; cited from earlier work
[2] = cited from earlier work
L-1210 leukemia cells = conditions: cited from earlier work
plasma proteins = conditions: cited from earlier work
[3] = high doses; cited from earlier work
[4] = in vivo; cited from earlier work
[5] = in vivo; cited from earlier work; remark: listed apart in the source
[6] = cited from earlier work; remark: listed apart in the source
[7] = test system: P-388 leukemia and B-16 melanoma; conditions: mouse, in vivo; cited from earlier work
Human tumor cells = conditions: cited from earlier work
[8] = in vivo; cited from earlier work; remark: listed apart in the source
[9] = Assay of reconstituted bisantrene dihydrochloride diluted in i.v. bag, with or without 0.2-μm filter, glass vs plastic sample vials; type: physicochemical
calf thymus DNA = conditions: in vitro; cited from earlier work
[10] = cited from earlier work; remark: listed apart in the source
DNA = conditions: hypoxic conditions; cited from earlier work
[11] = Filtration of 40 mg/mL stock mixture, content by HPLC; type: physicochemical; conditions: 5-μm, 1.2-μm and 0.2-μm filters
Method: Finished vials are sealed under nitrogen and partial vacuum for storage. Storage of the vials is typically at 18° C. to 25° C.

[12] = test system: colon 26, Lewis lung, Ridgway osteosarcoma, B16, Lieberman plasma cell, P388 or L1210 cancer cells; conditions: cited from earlier work
[13] = cited from earlier work; remark: listed apart in the source
[14] = cited from earlier work; remark: listed apart in the source

Structure (SMILES): C(=N\NC1=NCCN1)/c1c2ccccc2c(/C=N/NC2=NCCN2)c2ccccc12 [bisantrene, 9,10-anthracenedicarboxaldehyde-bis [(4,5-dihydro-1H-imidazole-2-yl) hydrazine] dihydrochloride]
- effect on platelet aggregation (Human Platelets): inhibit platelet aggregation
- activity in clonogenic assays (tumor cells; breast, small cell lung, large cell lung, squamous cell lung, ovarian, pancreatic, renal, adrenal, head and neck, sarcoma, gastric, lymphoma and melanoma tumor cells): Activity
- cross resistance with Adriamycin and mitoxantrone (tumor cells): lack of cross resistance
- activity in clonogenic assays (tumor cells; colorectal cancer): not in colorectal cancer
- metabolism by hepatic microsomal enzymes [1]: substrate
- activity in refractory malignant melanoma ([2]; Phase II): inactive
- activity in phase I clinical trials ([2]; hepatocellular cancer and hypernephroma (one patient each)): showed activity
- activity in phase I clinical trials ([2]; lymphoma, myeloma, melanoma, renal cancer, tumors of the bladder and lung): showed activity
- activity in Phase II clinical trials ([2]; patients with metastatic breast cancer): active
- activity in human colon cancer ([2]; tested in vivo (Phase II, advanced colorectal cancer)): inactive
- activity in phase I clinical trials ([2]; two other hypernephroma patients, five-day schedule): activity was also observed
- DNA strand breaks typical of inhibition of DNA topoisomerase II enzymes (L-1210 leukemia cells): induce protein-associated DNA strand breaks
- DNA supercoiling indicative of DNA intercalation (L-1210 leukemia cells): induce altered DNA supercoiling
- bound to plasma proteins (plasma proteins): More than 95%
- toxicities observed [3]: leukopenia, anorexia, diarrhea, injection site necrosis, enterocolitis, muscle degeneration, and pulmonary edema
- precipitation of drug in the body [4]: precipitates in the body have been observed
- cardiotoxicity [5]: not cardiotoxic
- toxicity for which the Phase II study was terminated ([6]; heavily pretreated patients with metastatic breast cancer): significant local toxicity
- alopecia (hair loss) compared with doxorubicin ([6]; human, in vivo): less intense
- anemia and cumulative myelosuppressive toxic effects ([6]; human, in vivo): not encountered
- cardiotoxicity in the clinic compared with other agents in its class ([6]; human, in vivo): less cardiotoxicity
- electrocardiographic changes while receiving the drug ([6]; human, in vivo): No patients experienced electrocardiographic changes
- fever ([6]; human, in vivo): mild fever
- major dose-limiting toxic effect ([6]; human, in vivo): leukopenia
- nausea or vomiting ([6]; human, in vivo): very little nausea or vomiting
- patients reporting malaise ([6]; human, in vivo): up to one-half of patients
- patients with anaphylactoid reactions following infusion ([6]; human, in vivo): Up to 10%
- phlebitis along peripheral veins used for drug infusion ([6]; human, in vivo): severe phlebitis
- radioangiocardiographic monitoring of cardiac function ([6]; human, in vivo): no decrease in ejection fraction
- recovery from myelosuppression ([6]; human, in vivo): ≤ 19 days
- thrombocytopenia ([6]; human, in vivo): mild
- nadir for myelosuppression ([6]; schedule of every 3 to 4 weeks): 9 days
- antitumor activity [7]: antitumor activity
- sensitivity of human tumor cells (Human tumor cells; breast, ovarian, renal, small cell and non-small cell lung cancer, lymphoma, acute myelogenous leukemia, melanoma, gastric, adrenal, head and neck cancer): sensitive
- activity in human colon cancer (Human tumor cells; tested in vitro): inactive
- brain levels [8]: extremely low
- distribution to lymph nodes and bone marrow [8]: did distribute
- tissues with the highest concentration (in descending order) [8]: kidney, liver, gallbladder, spleen, lung, and heart
- assay after passage through 0.2-μm filter versus i.v. bag assay ([9]; sample collected in glass vials): approximately 5 % lower
- assay after passage through 0.2-μm filter versus i.v. bag assay ([9]; sample collected in plastic vials): approximately matched
- assay of fully diluted drug in the i.v. bag versus reconstituted drug in the finished vial ([9]; samples collected in glass vials): approximately 5 % lower
- assay of fully diluted drug in the i.v. bag versus reconstituted drug in the finished vial ([9]; samples collected in plastic vials): no reduction
- shape of DNA dissociation curves (calf thymus DNA): biphasic
- dose excreted in the urine ([10]; in vivo): Less than 7%
- route by which the majority of the drug is eliminated ([10]; in vivo): hepatobiliary route
- area under the plasma concentration×time curve ([10]; intravenous dose 260 mg/m^2): 4400 µg·h/mL
- area under the plasma concentration×time curve ([10]; intravenous dose 340 mg/m^2): 5700 µg·h/mL
- beta phase of elimination ([10]; plasma): approximately 1.5 hours
- initial distributive phase of elimination ([10]; plasma): 6 min
- cytotoxicity and DNA strand breaks (DNA): reduced
- effect of removal of particulates on content in solution [11]: does not diminish
- activity in cancer models ([12]; intravenously (i.v.), intraperitoneally (i.p.), or subcutaneously (s.c.)): effective
- activity in cancer models ([12]; orally): inactive
- maximally tolerated dose ([13]; daily×5, repeat every 4 week (Spiegel et al. 1982)): 80 mg/m^2
- maximally tolerated dose ([13]; monthly (every 3-4 week) (Von Hoff et al. 1981b)): 260 mg/m^2
- maximally tolerated dose ([13]; monthly (every 3-4 week), patients with poor bone marrow reserve): 240 mg/mg^2
- maximally tolerated dose ([13]; weekly×3 (Alberts et al. 1982)): 200 mg/m^2
- maximally tolerated dose ([13]; weekly×3, patients with poor bone marrow reserve (Alberts et al. 1982)): 150 mg/mg^2
- maximally tolerated dose ([13]; weekly×3, repeat every 4-5 week (Yap et al. 1982)): 150 mg/m^2

Structure (SMILES): O=C([O-])O.[Na+] [sodium bicarbonate]
- effect of local injection on bisantrene extravasation necrosis [14]: blocked

Source: US20210379021A1 (Race Oncology Ltd., priority 2018, published 2021)
